“Also recorded” adds a separate entry of the source. Like-named read-outs stand apart in the source and are kept apart here.
Experiments:
[1] = system: naive guinea pigs (capsaicin inhalation-induced cough); assay: 30 uM capsaicin cough challenge on naive animals; format: in vivo, guinea pig; settings: for inhibition at 30 mg/kg: Cavia porcellus, ip; for mean cough, 10 min exposure: 30 mg/kg i.p. 30 min before 30 uM capsaicin, vehicle 9.3; for mean cough, 10 min exposure / mean cough, 5 min observation / mean cough, 10 + 5 min: n=16; for mean cough, 5 min observation: 5 min post-exposure period, vehicle 2.4; for mean cough, 10 + 5 min: vehicle 11.7; for antitussive effect (conclusion in words): capsaicin challenge
Method: (§1) The study was conducted as described in example 2, with the following exceptions. The bleomycin-induced cough modes is described J. A. Fernandez-Blanco et al: Clinical Science (2015) 129, 1001-1010).
(§2) The objective of the present study was to evaluate the potential anti-tussive effect of suplatast tosilate on capsaicin inhalation-induced cough on naïve and bleomycin-treated guinea pigs.
(§3) Male guinea pigs 300-350 g bodyweight (Harlan MD, distributed by INNOVO Ltd., Hungary) were used. The animals were housed in individually ventilated cabinets in a temperature-controlled and ventilated environment (21-23° C.) with a 12-hour light-dark cycle. Water and standard ascorbic acid containing guinea pig chow were provided ad libitum. The protocol has been approved by the Hungarian Food Chain Safety and Animal Health Directorate (PEI/001/3083-6/2014) and was carried out in accordance with European Directive 86/609/EEC.
(§4) Suplatast tosilate (racemate) and reference compound codeine were dissolved in saline ([…]) at 15 mg/mL concentration. Suplatast tosilate was administered intraperitoneally at 30 mg/kg dose (2 ml/kg b.d.w. volume from the […] solution) 30 min before capsaicin challenge. Codeine is a known cough suppressant.
(§5) Three experimental groups were involved in this study: Vehicle, suplatast tosilate and codeine treated groups. Each group contained n=16 guinea pigs. Altogether, 48 guinea pigs were used for this study.
(§6) On day 0 the naïve animals were treated i.p. either with codeine or suplatast tosilate. 30 min later the cough challenge was applied. 14 days later the animals were anaesthetized by ketamin/xilazine/acepromazine 10/2/0.1 mg/kg at 1 mL/kg i.m. The trachea was prepared and 8 U/kg bodyweight (1 mL/kg volume in sterile saline) bleomycin was injected slowly into the trachea. The wound was closed by sutures. 14 days after bleomycin injection the animals were treated with the test molecules and exposed to capsaicin spray again.
(§7) The capsaicin cough-challenge protocol was applied both on day 0 naïve animals and on day 28 on bleomycin treated animals. The guinea pigs were exposed to 30 μM capsaicin spray 30 min after the test item administration. The 30 μM capsaicin spray was generated by a compressed air nebulizer (DeVilbiss Pulmoaid) connected to a transparent chamber (6.7 l volume). Compressed air with a flow of 0.16 l/s and pressure of 0.5 bar produced the spray. The capsaicin vapour penetrated into the chamber through a short tube driven by constant air flow. The animals were put into a transparent chamber individually and exposed to the capsaicin (30 μM capsaicin was diluted by water from 10^-2 M alcoholic capsaicin stock solution) aerosol for 10 minutes. The number of coughs during the 10 min inhalation period and the subsequent 5 min was counted. The coughing of the animals was defined as a strong contraction of abdomen which was followed by forced expiration through the opened mouth of the animals. Two trained technicians monitored in parallel the exposed animals and counted the cough numbers independently from each-others.
(§8) The cough numbers in each group were expressed as median and inter quartile range on the figures and mean±SD on tables. The percentage antitussive effect was also calculated.

[2] = Solubility in dosing vehicle; format: physicochemical; settings: 10% PEG400/saline mixture; 30 mg/mL dosing solution
Method: The vehicle for suplatast tosilate was 10% PEG400/saline mixture. Suplatast tosilate was well soluble in this mixture. ST was administered intraperitoneally at 30 mg/kg dose (1 ml/kg b.d.w. volume from the 30 mg/mL solution/suspension) 30 min before citric acid challenge. 6 guinea pigs were included in the vehicle group and in the ST group.
The vehicle for suplatast tosilate (ST) is 10% PEG400/saline mixture. ST is well soluble in this mixture. ST is administered intraperitoneally at 30 mg/kg dose (1 ml/kg b.d.w. volume from the 30 mg/mL solution/suspension) 30 min before citric acid challenge. 6 guinea pigs were included in the vehicle and in the ST groups.

[3] = system: Atopic cough; settings: after four weeks of treatment; cited from earlier work
[4] = system: patients with non-atopic asthma or chronic bronchitis; settings: cited from earlier work
[5] = system: guinea-pigs (airway cough hypersensitivity, allergic eosinophilic inflammation); settings: cited from earlier work
[6] = system: guinea pigs (enalapril plus citric acid induced cough); settings: Zhou et al 2015; cited from earlier work
[7] = system: patients with Cough Variant Asthma; settings: cited from earlier work
[8] = system: refractory chronic dry cough following lung cancer surgery; settings: cited from earlier work
[9] = system: bleomycin-treated guinea pigs (capsaicin inhalation-induced cough); assay: 30 uM capsaicin cough challenge on bleomycin-treated animals (pre-clinical model of pulmonary fibrosis); format: in vivo, guinea pig; settings: for inhibition at 30 mg/kg: Cavia porcellus, ip; for mean cough, 10 min exposure: bleomycin-treated (14 days after 8 U/kg intratracheal), 30 mg/kg i.p. 30 min before 30 uM capsaicin, vehicle 52.9; for mean cough, 10 min exposure / mean cough, 5 min observation / mean cough, 10 + 5 min: n=14-16; for antitussive effect (conclusion in words): bleomycin-treated animals, capsaicin challenge; for mean cough, 5 min observation: 5 min post-exposure period, vehicle 22.4; for mean cough, 10 + 5 min: vehicle 75.3
Method: as §1, §2, §3, §4, §5, §6, §7, §8

[10] = system: guinea pigs (enalapril plus citric acid induced cough); assay: Cough induced by enalapril plus citric acid in guinea pigs; format: in vivo, guinea pig; settings: 30 mg/kg i.p. 30 min before 10% citric acid spray; enalapril 1.3 mg/kg s.c.; whole 8-min observation; mean±S.E.M.; n=6; vehicle 11.2±2.6
Method: as §3, with “The method is described in detail by Zhou et al: Pharmacology. 2015; 95(1-2): 36-41. In brief: Male” for “Male”, “open cages” for “individually ventilated cabinets”
The enalapril maleate was dissolved in sterile saline (Salsol infusion, Teva) at 1.3 mg/mL concentration and was applied subcutaneously at 1.3 mg/kg dose (1 mL/kg b.d.w. volume from the 1.3 mg/mL solution) 30 min before vehicle, suplatast tosilate or administration. […]
The guinea pigs were exposed to 10% citric acid spray 30 min after the test item administration. […] The number of coughs during the 3 min inhalation period and the subsequent 5 min was counted. […] The sound of the cough was monitored by a microphone connected to a loudspeaker placed into the cough chamber. A trained technician monitored the exposed animals and counted the cough numbers.
The average cough numbers in each group was expressed as mean±S.E.M. The percentage antitussive effect was also calculated.

[11] = system: Idiopathic Pulmonary Fibrosis (IPF); settings: cited from earlier work
[12] = system: patients receiving the drug; settings: cited from earlier work
[13] = naive animals, 30 mg/kg i.p., whole 15-min observation
[14] = bleomycin-treated, 30 mg/kg i.p.
[15] = bleomycin-treated, 30 mg/kg i.p., whole 15-min observation
[16] = 5 min, read-out: Percentage inhibition (antitussive effect), 5 min observation
[17] = 10 min, read-out: Percentage inhibition (antitussive effect), 10 min exposure
[18] = read-out: Percentage inhibition (antitussive effect), 10 + 5 min

In the case of `CCOCC(O)COc1ccc(NC(=O)CC[S+](C)C)cc1.Cc1ccc(S(=O)(=O)[O-])cc1` (racemic) [Suplatast tosilate, (±)-3-{[4-(3-ethoxy-2-hydroxypropoxy)phenyl]amino}-3-oxopropyl)(dimethyl)sulfonium; 4-methylbenzenesulfonate], the inhibition at 30 mg/kg ([1]; 5 min, naive animals, 30 mg/kg i.p., post-exposure period, versus vehicle, read-out: Percentage inhibition (antitussive effect), 5 min observation) is reported as -51.9%, the inhibition at 30 mg/kg ([1]; 10 min, naive animals, 30 mg/kg i.p., versus vehicle, read-out: Percentage inhibition (antitussive effect), 10 min exposure) is reported as -5.4% and the inhibition at 30 mg/kg ([1]; naive animals, 30 mg/kg i.p., whole 15-min observation, versus vehicle, read-out: Percentage inhibition (antitussive effect), 10 + 5 min) is reported as -15%. For the same compound, the “mean cough, 10 min exposure” value ([1]; naive animals) was 9.8, the “mean cough, 5 min observation” value ([1]; naive animals, 30 mg/kg i.p.) was 3.7 and the “Percentage inhibition (antitussive effect), 5 min observation” value ([1]; naive animals, 30 mg/kg i.p., post-exposure period, versus vehicle, 30 mg/kg) was “did not show antitussive effect”. The “Percentage inhibition (antitussive effect), 10 min exposure” value ([1]; naive animals, 30 mg/kg i.p., versus vehicle, 30 mg/kg) was “did not show antitussive effect”, the “mean cough, 10 + 5 min” value [1, 13] was 13.4 and the “antitussive effect (conclusion in words)” value ([1]; naive animals, 30 mg/kg i.p.) was “did not show antitussive effect”. For the same compound, the solubility in vehicle [2] was “well soluble”, the “effect on cough threshold” value [3] was “decreasing cough threshold” and the “effect on cough reflex sensitivity” value [4] was “does not change the cough reflex sensitivity”. For the same compound, the “acute effect on capsaicin induced cough” value ([5]; acute administration, airway allergy guinea-pig model) was “does not acutely reduce capsaicin induced cough”, the “effect on airway cough hypersensitivity” value ([5]; sub-chronic administration, allergic eosinophilic inflammation, listed as ST) was “reduce airway cough hypersensitivity; also recorded: inhibiting airway cough hypersensitivity” and the “effect on citric acid+enalapril induced cough” value [6] was “reduce citric acid+enalapril induced cough”. For the same compound, the “effect on cough in capsaicin challenge” value [7] was “improving cough”, the “effect on refractory chronic dry cough” value [8] was “benefit refractory chronic dry cough” and the inhibition at 30 mg/kg ([9]; 5 min, bleomycin-treated, 30 mg/kg i.p., post-exposure period, versus vehicle, read-out: Percentage inhibition (antitussive effect), 5 min observation) was 77.7%. The inhibition at 30 mg/kg ([9]; 10 min, bleomycin-treated, 30 mg/kg i.p., versus vehicle, read-out: Percentage inhibition (antitussive effect), 10 min exposure) was 42.8%, the inhibition at 30 mg/kg ([9]; bleomycin-treated, 30 mg/kg i.p., whole 15-min observation, versus vehicle, read-out: Percentage inhibition (antitussive effect), 10 + 5 min) was 53.2% and the “mean cough, 10 min exposure” value [9] was 30.3. The “antitussive effect (conclusion in words)” value ([9]; 30 mg/kg i.p.) was “relevant and statistically significant antitussive effect”, the “mean cough, 5 min observation” value [9, 14] was 5 and the “mean cough, 10 + 5 min” value [9, 15] was 35.3. It also gave a cough number [10] of 7.2±2.8.

With `COc1ccc2c3c1O[C@H]1[C@@H](O)C=C[C@H]4[C@@H](C2)N(C)CC[C@@]341` [Codeine, codeine] the inhibition at 30 mg/kg [1, 16] was 97.4%, the inhibition at 30 mg/kg [1, 17] was 43.9% and the inhibition at 30 mg/kg [1, 18] was 55%. The “mean cough, 10 min exposure” value ([1]; naive animals) was 5.2, the “mean cough, 5 min observation” value ([1]; naive animals, 30 mg/kg i.p.) was 0.1 and the “mean cough, 10 + 5 min” value [1, 13] was 5.3. The “antitussive effect (conclusion in words)” value ([1]; naive animals, 30 mg/kg i.p.) was “showed antitussive effect”, the inhibition at 30 mg/kg [9, 16] was 76.2% and the inhibition at 30 mg/kg [9, 17] was 72.9%. The inhibition at 30 mg/kg [9, 18] was 73.9%, the “mean cough, 10 min exposure” value [9] was 14.3 and the “antitussive effect (conclusion in words)” value ([9]; 30 mg/kg i.p.) was “showed antitussive effect”. For the same compound, the “mean cough, 5 min observation” value [9, 14] was 5.3 and the “mean cough, 10 + 5 min” value [9, 15] was 19.7.

In the case of `COC(=O)c1ccc2c(c1)NC(=O)/C2=C(\Nc1ccc(N(C)C(=O)CN2CCN(C)CC2)cc1)c1ccccc1` [Ofev (nintedanib), nintedanib], the “effect on decline of lung function” value [11] is given as “slow the decline of lung function” and the “effect on mortality and lung function” value [11] is given as “has not been shown to reduce mortality or improve lung function”.

For `CCCCc1oc2ccccc2c1C(=O)c1cc(I)c(OCCN(CC)CC)c(I)c1` [amiodarone], the “patients who get pulmonary fibrosis” value [12] is listed as “up to 40%”.

For `O=C1CN(/N=C/c2ccc([N+](=O)[O-])o2)C(=O)N1` [nitrofurantoin], the “patients who get pulmonary fibrosis” value [12] is given as 0.01%.
